From patent US12144792B2, “Therapeutic agents for neurodegenerative diseases” (priority 2016, dated 2024)

Legend:
[1] = system: Mucolipidosis Type II (MLII) patient fibroblasts; assay: Lysosomal volume via LysoTracker; format: cell-based, human; conditions: 1 mM, 6 days, vs untreated
[2] = system: Sandhoff disease patient fibroblasts; assay: Glycosphingolipid (GSL) levels via HPLC; format: cell-based, human; conditions: 1 mM for 6 days
[3] = system: patients with ataxia telangiectasia; assay: Case studies, SARA, SCAFI, visual analog scale and reports; format: in vivo, human
Excerpt: For example, to evaluate overall neurological status, mDRS, a four-domain scale (ambulation, manipulation, language and swallowing), may be applied. Cerebellar function may be evaluated using SARA, an eight-item clinical rating scale (gait, stance, sitting, speech, fine motor function and taxis; range 0-40, where 0 is the best neurological status and 40 the worst), and SCAFI, comprising the 8-m-Walking-Time (8MW; performed by having patients walking twice as quickly as possible from one line to another excluding turning), 9-Hole-Peg-Test (9HPT) and the number of “PATA” repetitions over 10 s. Subjective impairment and quality of life may be evaluated using the EQ-5D-5L questionnaire and VAS. To assess ocular motor function, 3-dimensional videooculography (EyeSeeCam) may be used to measure the peak velocity of saccades, gain of smooth pursuit, peak slow phase velocity of gaze-evoked nystagmus (gaze-holding function), peak slow phase velocity of optokinetic nystagmus, and gain of horizontal vestibulo-ocular reflex. To evaluate the cognitive state, WAIS-R or WISC-W, and MoCA, assessing different cognitive domains, including attention and concentration, executive functions, memory, language, visuoconstructional skills, conceptual thinking, calculations, and orientation with a maximum of 30 points and a cut-off score of 26, may be used. The skilled person will know how to perform these and other such tests.
After one month of treatment, the patient was re-evaluated. […] Examination indicated a Scale for Assessment and Rating of Ataxia (SARA) score of 15.5/40. Results from the patient's Spinocerebellar Ataxia Functional Index (SCAFI) analysis were: • Mean 8-meters Walking Test (8MW): 18.5 s • MW 9-Hole Pegboard Test Dominant (9HPTD) (right): 77.9 s • MW 9-Hole Pegboard Test Non-Dominant (9HPTND): 101.3 s • MW PATA Word Test: 13 • Visual analog scale (as evaluated by the patient): 85
After one month of treatment, the patient was re-evaluated. […] Examination indicated a Scale for Assessment and Rating of Ataxia (SARA) score of 23.5/40.
After slightly over 7 months of treatment, the patient was re-evaluated. […] Examination indicated a Scale for Assessment and Rating of Ataxia (SARA) score of 21.5/40.
After slightly over 1 month of treatment, the patient was re-evaluated. […] The patient also reported that drinking was easier and no longer needed a straw. […] Examination indicated a Scale for Assessment and Rating of Ataxia (SARA) score of 18.5/40.
After about 1 month of treatment, the patient was re-evaluated. […] On medication, they were able to walk with only holding the caregiver's hand.
The patient was evaluated after one month and six months of treatment, respectively. […] The patient, however, was suffering from anxiety, which would be expected to negatively influence the response.

[4] = system: patient with downbeat nystagmus; assay: Gait analysis; format: in vivo, human; conditions: Ex. 12 Patient 2
Excerpt: Medication was then suspended. About one month after stopping acetyl-DL-leucine treatment, the patient's symptomatology worsened.

[5] = system: patients with downbeat nystagmus; assay: Case studies, clinical examination (visual acuity, posturography); format: in vivo, human
Excerpt: The patient was diagnosed with downbeat nystagmus: the patient was severely impaired by blurred vision (oscillopsia) due to the nystagmus, and experienced difficulties while reading and writing. The patient's visual acuity was: right 0.75, left 0.67, binocular 0.83, and the downbeat nystagmus was documented by video-oculography. […] […] […] The patient was able to suppress the nystagmus by visual fixation. In addition, the patient's spatial orientation was improved.

[6] = system: Aspartylglucosaminuria patient fibroblasts; assay: Lysosomal volume via LysoTracker; format: cell-based, human; conditions: 1 mM, 6 days, vs untreated
[7] = system: Mucopolysaccharidosis Type IIIB (MPS IIIB) patient fibroblasts; assay: Lysosomal volume via LysoTracker; format: cell-based, human; conditions: 1 mM, 6 days, vs untreated
[8] = system: patient with Spinocerebellar Ataxia (SCA) 1; assay: Case study, clinical examination; format: in vivo, human; conditions: Ex. 16, SCA 1
Excerpt: Three months later the medication was stopped.

[9] = system: patients with cerebellar ataxia; conditions: cited from earlier work
Npc1^−/− mice = assay: Weight data; format: in vivo, mouse; conditions: 0.1 g/kg from weaning, vs untreated group
Excerpt: Separate groups of Npc1^−/− and Npc1^+/+ mice were left untreated, as controls. Animals were weighed twice a week. Weights were averaged (mean) across all mice in each group and compared.

[10] = Ex. 15 Patient 2, after one month
[11] = Ex. 15 Patient 3, after slightly over 7 months
[12] = Ex. 15 Patient 4, after slightly over 1 month
[13] = Ex. 15 Patient 5, after almost 7 months
[14] = Ex. 12 Patient 1, approximately 14 weeks after starting

## CC(=O)NC(CC(C)C)C(=O)O (racemic) [acetyl-DL-leucine]
[1]
  LysoTracker fluorescence (lysosomal volume): statistically significant reduction in LysoTracker fluorescence
[2]
  GSL levels: trend towards decreased GSL levels
[3]; Ex. 15 Patient 1, after one month
  caregivers' report: improvement of speech and gait
[3]; Ex. 15 Patient 1, after one month, before 12.5
  MW PATA Word Test: 13
[3]; [10]
  Mean 8-meters Walking Test (8MW): not able to perform without support
  caregivers' report: improvement of fine motor function, hand tremor, and speech
[3]; Ex. 15 Patient 2, after one month, before 13.5
  MW PATA Word Test: 14
[3]; Ex. 15 Patient 2, after one month, before 299.2 s
  MW 9-Hole Pegboard Test Non-Dominant (9HPTND): 300 s
[3]; Ex. 15 Patient 2, after one month, before 300 s
  MW 9-Hole Pegboard Test Dominant (9HPTD) (right): 300 s
[3]; [11]
  Mean 8-meters Walking Test (8MW): not able to perform
  caregivers' and patient's report: general improvement of well-being
[3]; Ex. 15 Patient 3, after slightly over 7 months, before 14
  MW PATA Word Test: 10
[3]; [12]
  Mean 8-meters Walking Test (8MW): not able to perform
  patient's and parent's report: improvement in handwriting
[3]; Ex. 15 Patient 5, ataxia telangiectasia, 5 g/day, after about 1 month
  mother's report: significant improvement of stability of the gait
[3]; Ex. 15 Patient 5, after about 1 month
  Mean 8-meters Walking Test (8MW): not able to walk without support
[3]; Ex. 15 Patient 5, after about 1 month, before 6
  MW PATA Word Test: 7.5
[3]; [13]
  MW PATA Word Test: 11
  mother's report: significantly more stable gait
[3]; Ex. 15 Patient 5, after slightly over a year
  clinical re-evaluation: improved social interaction, activity, and agility
[3]; Ex. 15 Patient 6, ataxia telangiectasia, 1.5 then 3 g/day, after one month
  symptoms: increased fine motor skills with reduced hand tremor
[3]; Ex. 15 Patient 6, after six months
  symptoms: stable general conditions, stable gait and stance, and improved handwriting
[4]; about one month after stopping treatment, decrease from 85
  self-chosen velocity: 72 cm/s
[4]; on treatment, increase from 56
  self-chosen velocity: 85 cm/s
[5]; Ex. 12 Patient 1, downbeat nystagmus, 3 then 5 gram per day, after 10 days
  patient-reported benefit: significant benefit
[5]; [14]
  nystagmus, clinical examination by two independent examiners: reduction of the nystagmus
  posturography: reduction of postural sway
[5]; Ex. 12 Patient 1, continued treatment at 5 gram per day
  side-effects: no side-effects resulted
[5]; Ex. 12 Patient 2, downbeat nystagmus, 3 g/day first week, 5 g/day thereafter
  symptoms: improvement of gait
[6]
  LysoTracker fluorescence (lysosomal volume): trend in reducing LysoTracker fluorescence
[7]
  LysoTracker fluorescence (lysosomal volume): statistically significant reduction in LysoTracker fluorescence
[8]; 5 g/day, three weeks on medication
  symptoms: all symptoms significantly improved
[8]; over two years on the same dosage
  side-effects: without any side-effects
[8]; two weeks after the medication was stopped
  signs and symptoms after stopping: the intensity of the signs and symptoms were the same as before therapy
[9]; another case series (Pelz et al. 2015)
  benefit in cerebellar ataxia: did not find benefit
[9]; case series with cerebellar patients (Strupp et al. 2013)
  cerebellar ataxia symptoms: symptomatic improvement of cerebellar ataxia
[9]; quantitative gait analysis (Schniepp et al. 2015)
  temporal gait variability: improved temporal gait variability
Npc1^−/− mice
  delay of weight loss symptoms: delayed these weight loss symptoms by two weeks
